No end group written: not given here. *: point of attachment. FITC = O=C1OC2(c3ccc(O)cc3Oc3cc(O)ccc32)c2ccc(NC(=S)*)cc21
Experiments:
inositol monophosphatase = details: cited from earlier work
Source text: (§1) By contrast, small-molecular kinase inhibitors or phosphatase enhancers generally lack specificity. […] This might bring unacceptable side-effects in the clinic. Importantly, the principle of DEPTAC can be used in future studies to design alternative chimeras specifically targeting many other types of post-tr ...

[1] = system: glycogen synthase kinase-3; details: cited from earlier work
Source text: as §1

tau = details: cited from earlier work
Source text: as §1

human tau = test: Fluorescence polarization binding assay, tau; details: 0.1 μM FITC-labeled DEPTAC; serial dilutions of tau; 20 mM Tris-HCl, 150 mM NaCl, 0.5 mM DTT, pH 7.4; 37 °C, 30 min
Protocol: (§2) Purified human tau and PP2A-Bα (PPP2R1A) were obtained from AtaGenix (Wuhan, China), and concentrated using ultrafiltration tubes (Beyotime). In basic binding assays, tau or PP2A-Bα was aliquoted into serial dilutions with a buffer containing 20 mM Tris-HCl, 150 mM NaCl, and 0.5 mM 1,4-Dithiothreitol (pH 7.4), and incubated with 0.1 μM FITC-labeled DEPTAC, FITC-labeled control peptide and FITC (9:1 vol/vol), respectively, in a black 384-well plates (Corning) under 37 °C for 30 min. In competition binding assays, a mixture of 2.5 μM tau or PP2A-Bα and 0.1 μM FITC-labeled DEPTAC were incubated with increasing amounts of unlabeled-DEPTAC under 37 °C for 30 min. Fluorescence intensity was measured by a Biotek Synergy 2 microplate reader with the wavelengths of 480 nm (60) (Ex)/560 nm (40) (Em). The polarization measurements were corrected for background contributions to the measured intensity by subtracting the parallel and perpendicular intensity readings by the vehicle-only wells from the intensity readings for each data point. Fluorescence polarization (P) was calculated by the formula P = (I║ − I┴) / (I║ + I┴), where I║ was the intensity of emitted light polarized parallel to the excitation light, and I┴ was the intensity of emitted light polarized perpendicular to the excitation light.

PP2A-Bα (PPP2R1A) = test: Fluorescence polarization binding assay, PP2A-Bα; design: species or system human; details: 0.1 μM FITC-labeled DEPTAC; serial dilutions of PP2A-Bα; 20 mM Tris-HCl, 150 mM NaCl, 0.5 mM DTT, pH 7.4; 37 °C, 30 min
Protocol: as §2

Row | Compound | action on inositol monophosphatase (inositol monophosphatase) | action on glycogen synthase kinase-3 [1] | suppression of tau hyperphosphorylation (tau) | FITC-DEPTAC fluorescence polarization with increased amount of tau (human tau) | FITC-DEPTAC fluorescence polarization with increased amount of PP2A-Bα (PP2A-Bα (PPP2R1A))
1 | [Li] [lithium] | acts on other targets | acts on other targets | suppress tau hyperphosphorylation | – | –
2 | FITC-DEPTAC: For tracing the chimera, a fluorescein FITC was conjugated at the K18 residue (YQQYQDATADEQGGSGSK(FITC)KVAVVRTPPKSPRRRRRRRR) | – | – | – | sigmoidal increases | sigmoidal increases
